Laboratory results reported in article PMC11562494 (BMC Chemistry, 2024).
≈ marks a conversion by molar mass, not a printed value. Where “and” joins values, the source holds several entries; their conditions need not be identical. Equal values may be shown once. Read-outs that look alike come from different tables or passages of the source.

Key:
[1] = test system: S. cerevisiae; assay: Broth dilution MIC/MFC; assay type: cell-based, Saccharomyces cerevisiae; settings: for MFC / MIC: Saccharomyces cerevisiae; for MFC: read-out: MFC S. cerevisiae; for MIC: read-out: MIC S. cerevisiae
[2] = test system: C. albicans; assay: Broth dilution MIC/MFC; assay type: cell-based, Candida albicans; settings: for MFC / MIC: Candida albicans; for MFC: read-out: MFC C. albicans; for MIC: read-out: MIC C. albicans, broth dilution; for MIC C. albicans: broth dilution
[3] = test system: S. faecalis; assay: Broth dilution MIC/MBC; assay type: cell-based, Streptococcus faecalis; settings: for MBC / MIC: Enterococcus faecalis; for MBC: read-out: MBC S. faecalis; for MIC: read-out: MIC S. faecalis
[4] = test system: E. coli; assay: Broth dilution MIC/MBC; assay type: cell-based, Escherichia coli; settings: for MBC / MIC: Escherichia coli; for MBC: read-out: MBC E. coli; for MIC: read-out: MIC E. coli
[5] = test system: B. pumilus; assay: Broth dilution MIC/MBC; assay type: cell-based, Bacillus pumilus; settings: for MBC / MIC: Bacillus pumilus; for MBC: read-out: MBC B. pumilus; for MIC: read-out: MIC B. pumilus
[6] = test system: E. cloacae; assay: Broth dilution MIC/MBC; assay type: cell-based, Enterobacter cloacae; settings: for MBC / MIC: Enterobacter cloacae; for MBC: read-out: MBC E. cloacae; for MIC: read-out: MIC E. cloacae
[7] = target: DNA gyrase A (Escherichia coli, UniProt P0AES4); assay: DNA gyrase supercoiling assay; assay type: biochemical; settings: IC50 ± SD DNA gyrase A, E. coli DNA gyrase supercoiling
[8] = test system: WI38 cells; assay: In vitro cytotoxicity MTT assay; settings: Homo sapiens, WI-38, 48 h, read-out: WI-38 IC50 ± SD
[9] = test system: E. coli; assay: Time-kill kinetic test; assay type: cell-based; settings: 1x MIC
[10] = test system: C. albicans; settings: cited from earlier work
[11] = test system: Escherichia coli; settings: cited from earlier work

Molecule	MFC/ MIC ratio S. cerevisiae [1]	MIC [1] [µg/mL]	MIC [2] [µg/mL]	MBC/ MIC ratio S. faecalis [3]	MIC [3] [µg/mL]	MBC/ MIC ratio E. coli [4]	MIC [4] [µg/mL]	MBC/ MIC ratio B. pumilus [5]	MIC [5] [µg/mL]	MBC/ MIC ratio E. cloacae [6]	MIC [6] [µg/mL]	MFC/ MIC ratio C. albicans [2]	MFC [1] [µg/mL]	MFC [2] [µg/mL]	MBC [3] [µg/mL]	MBC [4] [µg/mL]	MBC [5] [µg/mL]	MBC [6] [µg/mL]	also measured
CC(=O)N1CCN(c2ccc(OCC3COC(Cn4ccnc4)(c4ccc(Cl)cc4Cl)O3)cc2)CC1 (stereo not drawn) [Keto., Ketoconazole, reference compound]		1.95 (≈ 3.67 µM)	1.95 (≈ 3.67 µM)										15.6 (≈ 29.4 µM)	31.3 (≈ 58.9 µM)					
CC(=O)Oc1ccc(-c2c(C(N)=O)c(N)n(N)c(=O)c2C#N)cc1 [Compound 3e, 4-(1,6-diamino-5-carbamoyl-3-cyano-2-oxo-1,2-dihydropyridin-4-yl)phenyl acetate]	2	62.5	62.5	2	31.3	4	3.91	2	62.5	4	15.6	2	125	125	62.5	15.6	125	62.5	IC50 [7]: 11.5 µM; IC50 [8]: 43.2 ± 1.7 µM; Time to bactericidal activity against E. coli [9]: 90 to 120 min and 120 min
CC1(C)S[C@@H]2[C@H](NC(=O)Cc3ccccc3)C(=O)N2[C@H]1C(=O)O [Pen. G, Penicillin G, reference compound]				2	31.5 (≈ 94.2 µM)			2	62.5 (≈ 187 µM)						62.5 (≈ 187 µM)		125 (≈ 374 µM)		
Cc1c(C(N)=O)c(N)n(N)c(=O)c1C#N [Compound 3a, 1,2-diamino-5-cyano-4-methyl-6-oxo-1,6-dihydropyridine-3-carboxamide]	4	31.3 (≈ 151 µM)		4	7.81 (≈ 37.7 µM)	4	15.6 (≈ 75.3 µM)	4	31.3 (≈ 151 µM)	8	3.91 (≈ 18.9 µM)	4	125 (≈ 603 µM)	500 (≈ 2410 µM)	31.3 (≈ 151 µM)	62.5 (≈ 302 µM)	125 (≈ 603 µM)	31.3 (≈ 151 µM)	
N#Cc1c(-c2ccc(Cl)cc2Cl)c(C(N)=O)c(N)n(N)c1=O [Compound 3b, 1,2-diamino-5-cyano-4-(2,4-dichlorophenyl)-6-oxo-1,6-dihydropyridine-3-carboxamide]	2	125 (≈ 370 µM)	62.5 (≈ 185 µM)	2	31.3 (≈ 92.6 µM)	4	7.81 (≈ 23.1 µM)	2	15.6 (≈ 46.1 µM)	4	31.3 (≈ 92.6 µM)	2	250 (≈ 739 µM)	125 (≈ 370 µM)	62.5 (≈ 185 µM)	31.3 (≈ 92.6 µM)	31.3 (≈ 92.6 µM)	125 (≈ 370 µM)	
gentamycin [reference compound]																			Time to bactericidal activity against E. coli [9]: 90 to 120 min and 120 min
C[C@@H]1[C@H](O)[C@@H](C)/C=C/C=C/CC/C=C/C=C/C=C/C=C/C(O[C@H]2O[C@H](C)[C@@H](O)[C@H](N)[C@@H]2O)CC2O[C@](O)(CC(O)C(O)CCC(O)CC(O)CC(O)CC(=O)O[C@H]1C)CC(O)C2C(=O)O (stereo partly drawn) [nystatin]																			MIC C. albicans [10]: 1.95 µg/mL (≈ 2.11 µM)
CC1COc2c(N3CCN(C)CC3)c(F)cc3c(=O)c(C(=O)O)cn1c23 (stereo not drawn) [ofloxacin]																			IZ E. coli [11]: 24 mm
CN(C)c1ccc(-c2c(C(N)=O)c(N)n(N)c(=O)c2C#N)cc1 [Compound 3c, 1,2-diamino-5-cyano-4-(4-(dimethylamino)phenyl)-6-oxo-1,6-dihydropyridine-3-carboxamide]	4	31.3 (≈ 100 µM)	31.3 (≈ 100 µM)	2	62.5 (≈ 200 µM)	4	15.6 (≈ 49.9 µM)	4	15.6 (≈ 49.9 µM)	2	62.5 (≈ 200 µM)	2	125 (≈ 400 µM)	125 (≈ 400 µM)	125 (≈ 400 µM)	62.5 (≈ 200 µM)	62.5 (≈ 200 µM)	125 (≈ 400 µM)	MIC C. albicans [2]: 62.5 µg/mL (≈ 200 µM)

Now from value to molecule, other results behind:

MFC/ MIC ratio S. cerevisiae [1]	MIC [1] [µg/mL]	MIC [2] [µg/mL]	MBC/ MIC ratio S. faecalis [3]	MIC [3] [µg/mL]	MBC/ MIC ratio E. coli [4]	MIC [4] [µg/mL]	MBC/ MIC ratio B. pumilus [5]	MIC [5] [µg/mL]	MBC/ MIC ratio E. cloacae [6]	MIC [6] [µg/mL]	MFC/ MIC ratio C. albicans [2]	Molecule	MFC [1] [µg/mL]	MFC [2] [µg/mL]	MBC [3] [µg/mL]	MBC [4] [µg/mL]	MBC [5] [µg/mL]	MBC [6] [µg/mL]	also measured
8	62.5 (≈ 280 µM)	31.3 (≈ 140 µM)	4	15.6 (≈ 69.9 µM)	2	15.6 (≈ 69.9 µM)	2	62.5 (≈ 280 µM)	2	62.5 (≈ 280 µM)		Cc1c(C(N)=S)c(N)n(N)c(=O)c1C#N [Compound 4a, 1,2-diamino-5-cyano-4-methyl-6-oxo-1,6-dihydropyridine-3-carbothioamide]	500 (≈ 2240 µM)	62.5 (≈ 280 µM)	62.5 (≈ 280 µM)	31.3 (≈ 140 µM)	125 (≈ 560 µM)	125 (≈ 560 µM)	
2	31.3 (≈ 80 µM)	31.3 (≈ 80 µM)	2	31.3 (≈ 80 µM)	4	7.81 (≈ 20 µM)	4	7.81 (≈ 20 µM)	2	62.5 (≈ 160 µM)	2	N#Cc1c(-c2ccc(OCc3ccccc3)cc2)c(C(N)=S)c(N)n(N)c1=O [Compound 4d, 1,2-diamino-4-(4-(benzyloxy)phenyl)-5-cyano-6-oxo-1,6-dihydropyridine-3-carbothioamide]	62.5 (≈ 160 µM)	125 (≈ 319 µM)	62.5 (≈ 160 µM)	31.3 (≈ 80 µM)	31.3 (≈ 80 µM)	125 (≈ 319 µM)	MIC C. albicans [2]: 62.5 µg/mL (≈ 160 µM)
2	62.5 (≈ 190 µM)	15.6 (≈ 47.5 µM)	4	7.81 (≈ 23.8 µM)	4	31.3 (≈ 95.3 µM)	2	62.5 (≈ 190 µM)	4	62.5 (≈ 190 µM)	4	CN(C)c1ccc(-c2c(C(N)=S)c(N)n(N)c(=O)c2C#N)cc1 [Compound 4c, 1,2-diamino-5-cyano-4-(4-(dimethylamino)phenyl)-6-oxo-1,6-dihydropyridine-3-carbothioamide]	125 (≈ 381 µM)	62.5 (≈ 190 µM)	31.3 (≈ 95.3 µM)	125 (≈ 381 µM)	125 (≈ 381 µM)	250 (≈ 761 µM)	
4	125 (≈ 353 µM)	31.3 (≈ 88.4 µM)		31.3 (≈ 88.4 µM)		7.81 (≈ 22 µM)	2	31.3 (≈ 88.4 µM)		31.3 (≈ 88.4 µM)		N#Cc1c(-c2ccc(Cl)cc2Cl)c(C(N)=S)c(N)n(N)c1=O [Compound 4b, 1,2-diamino-5-cyano-4-(2,4-dichlorophenyl)-6-oxo-1,6-dihydropyridine-3-carbothioamide]	500 (≈ 1410 µM)	62.5 (≈ 176 µM)	125 (≈ 353 µM)	62.5 (≈ 176 µM)	62.5 (≈ 176 µM)	125 (≈ 353 µM)	
